Measured values published in paper PMC7377376, “Drug targeting CYP2E1 for the treatment of early-stage alcoholic steatohepatitis” (PLoS ONE, 2020).

Key:
[1] = parameters: method as in earlier work; details: compared among I-ol, I-an and I-phosphocholines; ref "ω-imidazolyl-alkyl derivatives as new preclinical drug candidates for NASH therapy"; cited from earlier work
rat liver microsomes = assay: Difference spectra titration of rat liver microsomes; details: one specific binding site
Experimental: Liver microsomes were prepared as follows: Rat liver was homogenized in 33 mM TRIS*HCl pH 7.4, 33 mM KCl, 1 mM EDTA, 250 mM sucrose and protease inhibitors. The homogenate was centrifuged first at 600 g then at 6,500 g for 10 minutes to separate nuclei and mitochondria. Supernatant was centrifuged at 105,000 g for 60 minutes. The pellet (microsomal fraction) was dissolved in 10 mM TRIS*HCl pH 7.4, 10 mM EDTA, 50% glycerol and stored at -80°C [20].
Difference spectra measurements were performed in tandem cuvettes at 37°C. The sample as well as the reference chamber contained rat liver microsomes in 100 mM HEPES buffer (pH 7.6). The baseline was recorded between 365 and 500 nm. Varying concentrations of 12-Imidazolyl-dodecan-1-yl-phosphocholine (5–95 μM) were added to rat microsomes. Difference spectra were obtained after the system reached equilibrium.

## OCCCCCCCCCCCCn1ccnc1 [I-ol]
[1]
  tolerability in acute toxicity study (in words): best tolerated compound
Rat liver microsomes
  Kd: 578 nM
